Ten compounds from PubChem BioAssay (NCI) can be followed below.

What all share (experiment): inhibition of tumour cell growth, NCI panel, 48 h
Test [1] has as its system UACC-62 melanoma.
The test system of test [2] is SNB-75 CNS.
Test [3] deals with OVCAR-4 ovarian.
Test [4] relates to NCI/ADR-RES ovarian.
Test [5] deals with HCT-116 colon.
The test system of test [6] is SN12C renal.
The test system of test [7] is SK-OV-3 ovarian.
Test [8] has as its system SW-620 colon.
Test [9] relates to SR leukemia.
Test [10] deals with UACC-257 melanoma.
The test system of test [11] is ACHN renal.
The test system of test [12] is DU-145 prostate.

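Test compounds were applied to cells in 96-well plates for 48 hours at 5 doses. The concentration for full growth arrest is given as TGI.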

On to `Cc1ccc(CC2(C(=O)O)Cc3ccc(C)cc3C2)cc1` (stereo not given), for which the TGI in test [1], in [2], in [3], in test [4], in test [5] and in test [6] was over 100 µM in each case. For the same compound, the TGI in test [7], in test [8], in [9], in [10], in test [11] and in [12] was over 100 µM in each case.

For the compound `c1csc(-c2nn3c(C45CC6CC(CC(C6)C4)C5)nnc3s2)c1`, the TGI in test [1], in [2], in test [3], in [4], in test [5] and in test [6] was over 100 µM throughout. Besides, the TGI in test [7], in test [8], in test [9], in test [10], in test [11] and in test [12] was over 100 µM in each case.

For `COc1ccc2c3c1OC1C(F)C=CC4(O)C(C2)NCCC314` (stereo not given), the TGI is 10.5 µM in test [1]; 6.58 µM in test [2]; 7.05 µM in test [3]; 38.3 µM in [4]; 3.01 µM in [5]; 10.3 µM in test [6]. The TGI was 10.3 µM in test [7]; 7.71 µM in test [8]; 4.42 µM in test [9]; 24.1 µM in [10]; 10.8 µM in [11]; 9.71 µM in test [12].

In the case of `CCOCCOCCOCc1nc(C#N)c(N)o1`, the TGI in test [1], in test [2], in [3], in [4], in [5] and in [6] was over 100 µM throughout. The TGI in [7], in [8], in test [9], in test [10], in [11] and in test [12] was over 100 µM in each case.

Consider `COc1ccc2c(c1)Cc1c(NCCN(C)C)ccc(C(=O)NCCCN(C)CCCNC(=O)c3ccc(NCCN(C)C)c4c3Nc3ccc(OC)cc3C4)c1N2`, for which the TGI in test [1] was 0.365 µM; in test [2], 0.103 µM; in test [3] it was 0.448 µM; in test [4] it was over 100 µM; in [5], 0.239 µM; in test [6] it was 0.624 µM. The TGI is 0.502 µM in test [7]; 8.65 µM in test [8]; 0.502 µM in test [9]; 1.1 µM in [10]; 9.79 µM in [11]; 1.04 µM in test [12].

`C=CCN(c1cc(OC)c(NC(C)=O)cc1[N+](=O)[O-])S(C)(=O)=O`: the TGI in test [1], in test [2], in test [3], in [4], in test [5] and in test [6] was over 100 µM each time. Further, the TGI in [7], in [8], in [9], in test [10], in test [11] and in test [12] was over 100 µM in each case.

Regarding `C=C(Cl)C(Cl)(CBr)CCC(Br)C(C)(C)Br` (stereo not given), the TGI is 28.5 µM in [1]; 5.45 µM in test [2]; 36 µM in test [3]; over 55.4 µM in test [4]; 4.04 µM in [5]; 19.7 µM in test [6]. For the same compound, the TGI in [7] was 26.5 µM; in [8], 8.32 µM; in test [9], 32.9 µM; in test [10], 4.4 µM; in [11], 5.53 µM; in test [12] it was 11.9 µM.

On to `O=C1NC2c3c(I)sc(I)c3C(=O)C2O1` (stereo not given), for which the TGI in test [1] stood at 23.3 µM; in test [2], 25.8 µM; in test [3] it was 23 µM; in [4], 34.1 µM; in test [5], 6.87 µM; in test [6], 51.5 µM. Also, the TGI came to 31.5 µM in test [7]; 9.76 µM in test [8]; 13.9 µM in test [9]; 12.2 µM in test [10]; 7.89 µM in [11]; 31 µM in [12].

Turning to `Cc1cc(S(=O)(=O)Nc2n[nH]c(-c3ccc(Cl)cc3)n2)c(SSc2cc(Cl)c(C)cc2S(=O)(=O)Nc2n[nH]c(-c3ccc(Cl)cc3)n2)cc1Cl`, the TGI was 47 µM in [1]; 76.1 µM in test [2]; over 100 µM in test [3]; over 100 µM in [4]; over 100 µM in test [5]; over 100 µM in [6]. In addition, the TGI in test [7] is over 100 µM; in test [8] it was 73.5 µM; in test [9] it was 55.3 µM; in test [10], over 100 µM; in test [11], 98.5 µM; in [12], over 100 µM.

For `CCOC1CN=C(Nc2cccc3ccccc23)S1` (stereo not given), the TGI in test [1], in [2], in test [3], in [4], in test [5] and in test [6] was over 10 µM each time. The TGI in [7], in test [8], in [9], in test [10], in test [11] and in test [12] was over 10 µM each time.
